Test results: US6610744B2, “Methods of treatment with compounds having RARα receptor specific or selective activity” (Allergan, Inc., priority 1995, dated 2003)
≈ marks a conversion by molar mass, not a printed value.

Assays:
[1] = tested on: RPMI 8226 cells (malignant myeloma); experiment: RPMI 8226 cell culture assay (3H-thymidine incorporation); type: cell-based, human; conditions: FIG. 1; for growth of RPMI 8226 malignant cells: 96 hours; for growth of RPMI 8226 cells at low concentration: low concentration range 10^−12 to approximately 10^−9
Method: (§1) All trans-retinoic acid (t-RA) (Sigma Chemicals Co., St. Louis, Mo.) was stored at −70° C. Prior to each experiment the compound was dissolved in 100% ethanol at 1 mM and diluted in culture medium immediately before use. All experiments were performed in subdued light. Controls were assayed using the same concentration of ethanol as present in the experimental plates and this concentration of diluent had no effect in either assay.
The cell lines, RPMI 8226, ME-180 and AML-193 were obtained from the American Type Culture Collection (ATCC, Rockville, Md.). RPMI 8226 is a human hematopoietic cell line obtained from the peripheral blood of a patient with multiple myeloma. The cells resemble the lymphoblastoid cells of other human lymphocyte cell lines and secrete […] light chains of immunoglobulin. RPMI-8226 cells are grown in RPMI medium (Gibco) supplemented with 10% fetal bovine serum, glutamine and antibiotics. The cells were maintained as suspension cultures grown at 37° C. in a humidified atmosphere of 5% CO2 in air. The cells were diluted to a concentration of 1×10^5/ml twice a week.
The method used for determination of the incorporation of radiolabeled thymidine was adapted from the procedure described by Shrivastav et al. RPMI-8226 cells were plated in a 96 well round bottom microtiter plate (Costar) at a density of 1,000 cells/well. To appropriate wells, retinoid test compounds were added at the final concentrations indicated for a final volume of 150 μl/well. The plates were incubated for 96 hours at 37° C. in a humidified atmosphere of 5% CO2 in air. Subsequently, 1 μCi of [5′-^3H]-thymidine (Amersham, U.K. 43 Ci/mmol specific activity) in 25 μl culture medium was added to each well and the cells were incubated for an additional 6 hours. The cultures were further processed as described below.
(§2) The cell lines were then processed as follows: the cellular DNA was precipitated with 10% trichloroacetic acid onto glass fiber filter mats using a SKATRON multi-well cell harvester (Skatron Instruments, Sterling Va.). Radioactivity incorporated into DNA, as a direct measurement of cell growth, was measured by liquid scintillation counting. The numbers represent the mean disintegrations per minute of incorporated thymidine from triplicate wells±SEM.

[2] = tested on: AML-193 cells (acute monocytic leukemia); experiment: AML 193 cell culture assay (3H-thymidine incorporation); type: cell-based, human; conditions: FIG. 3; low concentrations
Method: as §1
AML-193 was established from the blast cells classified as M5 Acute Monocyte Leukemia. The growth factor, […] (GM-CSF) was required to establish this cell line and growth factors are necessary for its continuous proliferation in chemically defined medium. AML-193 cells were grown and maintained in Iscove's modified Dulbecco's medium supplemented with 10% fetal bovine serum, glutamine and antibiotics with 5 μg/ml insulin (Sigma Chemical Co.) and 2 ng/ml rh GM-CSF (R and D Systems). The cells were diluted to a concentration of 3×10^5/ml twice a week.
AML-193 cells were plated in a 96 well round bottom microtiter plate (Costar) at a density of 1,000 cells/well. To appropriate wells, retinoid test compounds were added at the final concentrations indicated for a final volume of 150 μl/well. The plates were incubated for 96 hours at 37° C. in a humidified atmosphere of 5% CO2 in air. Subsequently, 1 μCi of [5′-^3H]-thymidine (Amersham, U.K., 43 Ci/mmol specific activity) in 25 μl culture medium was added to each well and the cells were incubated for an additional 6 hours.
as §2

[3] = tested on: limb bud mesenchymal cells; experiment: Chondrogenesis suppression bioassay (teratogenic potency); type: cell-based; conditions: read-out: IC50 (50% inhibition of chondrogenesis); mouse limb bud spot cultures, 96 hours after plating; greater IC50 signifies lesser teratogenecity
Method: High-density “spot” cultures of limb bud mesenchymal cells are used to compare the ability of various concentrations of test drugs to suppress chondrogenic differentiation as a bioassay. Forelimb buds of mouse embryos on day 12 of gestation (54±2 somites) are dissociated in a trypsin-EDTA solution, and the resultant single-cell suspension is plated as 20-μl spots (200,000 cells/spot) on plastic culture dishes. Retinoid concentrations ranging from 0.3 ng/ml to 3 μg/ml (1 nM−10 μM) are added to the culture medium (Eagle's MEM±10% fetal bovine serum, GIBCO) 24 hours after initial plating. Control cultures receive only the vehicle (ethanol, concentration≦1% by vol); Retinoic acid is used as a positive control in another set of cultures.
The cultures are terminated 96 hours after plating, at which time the medium is removed and the cells are fixed for 1 hour in 10% formalin containing 0.5% cetylpyridinium chloride. The cultures are rinsed in acetic acid and stained for 1 hour in 0.5% Alcian blue solution at pH 1.0, differentiated in 3% acetic acid, and then dehydrated in ethanol and scored for chondrogenesis under the microscope. An absence or reduction in the number of cartilage nodules in stained cultures as compared with control cultures is taken as a measure of suppression of chondrogenesis. The number of cartilage nodules stained in the whole spot, mean number of nodules, and standard deviations are calculated for four replicate cultures per treatment. […] The IC50 values are expressed in nanogram per mililiter (ng/ml) units. An IC50 value of greater concentration in this assay signifies lesser teratogenecity.

[4] = biological target: T1, RXRβ (Homo sapiens, UniProt P28702); experiment: Ligand binding assay, RXRβ
T1 construct: made in house; host or cells: Baculovirus expression (insect cell extract)
T1 sequence (P28702 1-533): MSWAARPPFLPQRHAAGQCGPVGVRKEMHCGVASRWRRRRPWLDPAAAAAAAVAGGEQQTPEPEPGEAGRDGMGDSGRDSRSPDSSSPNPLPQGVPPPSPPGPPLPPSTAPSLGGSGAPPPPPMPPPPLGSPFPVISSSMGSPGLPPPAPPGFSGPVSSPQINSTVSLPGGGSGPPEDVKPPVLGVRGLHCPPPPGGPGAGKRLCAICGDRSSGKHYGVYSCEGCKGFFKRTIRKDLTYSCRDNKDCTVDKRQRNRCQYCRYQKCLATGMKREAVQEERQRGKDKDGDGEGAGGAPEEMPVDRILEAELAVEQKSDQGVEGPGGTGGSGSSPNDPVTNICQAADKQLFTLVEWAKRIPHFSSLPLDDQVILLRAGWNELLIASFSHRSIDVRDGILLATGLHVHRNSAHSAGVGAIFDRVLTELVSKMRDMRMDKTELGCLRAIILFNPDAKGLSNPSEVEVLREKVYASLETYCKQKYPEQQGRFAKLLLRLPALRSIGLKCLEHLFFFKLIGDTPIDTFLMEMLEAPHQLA
Method: (§3) All binding assays were performed in a similar fashion. All six receptor types were derived from the expressed receptor type (RARα, β, Γ and RXRα, β, Γ) expressed in Baculovirus. Stock solutions of all compounds were prepared as 10 mM ethanol solutions and serial dilutions carried out into 1:1 DMSO; ethanol. Assay buffers consisted of the following for all six receptor assays: 8% glycerol, 120 mM KCl 8 mM Tris, 5 mM CHAPS 4 mM DTT and 0.24 mM PMSF, pH-7.4@ room temperature.
(§4) All receptor binding assays were performed in the same manner. The final assay volume was 250 μl and contained from 10-40 μg of extract protein depending on receptor being assayed along with 5 nM of [^3H] all-trans retinoic acid or 10 nM [^3H] 9-cis retinoic acid and varying concentrations of competing ligand at concentrations that ranged from 0-10^−5 M. The assays were formatted for a 96 well minitube system. Incubations were carried out at 4° C. until equilibrium was achieved. Non-specific binding was defined as that binding remaining in the presence of 1000 nM of the appropriate unlabeled retinoic acid isomer. At the end of the incubation period, 50 μl of 6.25% hydroxyapitite was added in the appropriate wash buffer. The wash buffer consisted of 100 mM KCl, 10 mM Tris and either 5 mM CHAPS (RXRα, β, Γ) or 0.5% Triton X-100 (RARα, β, Γ). The mixture was vortexed and incubated for 10 minutes at 4° C., centrifuged and the supernatant removed. The hydroxyapitite was washed three more times with the appropriate wash buffer. The receptor-ligand complex was adsorbed by the hydroxyapitite. The amount of receptor-ligand complex was determined by liquid scintillation counting of hydroxyapitite pellet.
(§5) After correcting for non-specific binding, IC50 values were determined. […] The IC50 value was determined graphically from a loglogit plot of the data. The […] were determined by application of the Cheng-Prussof equation to the IC50 values, the labeled ligand concentration and the Kd of the labeled ligand.
(§6) The results of ligand binding assay are expressed in Kd numbers. (See Cheng et al. Biochemical Pharmacology Vol. 22 pp 3099-3108, expressly incorporated herein by reference.)

[5] = biological target: T2, RXRΓ (Homo sapiens, UniProt P48443); experiment: Ligand binding assay, RXRΓ
T2 construct: made in house; host or cells: Baculovirus expression (insect cell extract)
T2 sequence (P48443 1-463): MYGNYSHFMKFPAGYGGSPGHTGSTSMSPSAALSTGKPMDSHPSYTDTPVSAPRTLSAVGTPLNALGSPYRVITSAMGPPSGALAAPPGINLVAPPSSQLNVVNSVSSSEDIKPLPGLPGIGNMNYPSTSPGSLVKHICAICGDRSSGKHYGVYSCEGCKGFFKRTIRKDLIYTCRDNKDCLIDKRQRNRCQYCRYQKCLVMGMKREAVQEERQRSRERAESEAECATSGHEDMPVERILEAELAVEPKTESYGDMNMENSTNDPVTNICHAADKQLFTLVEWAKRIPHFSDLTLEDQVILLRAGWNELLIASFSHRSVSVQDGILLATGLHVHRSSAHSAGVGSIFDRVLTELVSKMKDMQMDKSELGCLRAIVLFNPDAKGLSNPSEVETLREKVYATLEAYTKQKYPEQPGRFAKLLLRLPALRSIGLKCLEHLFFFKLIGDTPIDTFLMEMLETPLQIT
Method: as §3, §4, §5, §6

[6] = Weight loss in rats treated for 3 days; type: in vivo, rat; conditions: rats, similar tests
Method: Weight loss or gain that experimental animals experience upon administration of retinoid compounds is another test of the drug's toxicity, with significant weight loss at relatively low doses indicating a significant toxic side effect of the retinoid. In one experiment, groups of 5 rats were treated with varying doses (administered in corn oil) of a test retinoid for 3 days. The rats were euthanized 24 hours after the last dose.

[7] = tested on: hairless mice [Crl:SKH1-hrBR]; experiment: Eight day topical skin irritation assay in hairless mice; conditions: for Abrasion Score / Body Weight % gain or (loss) / Composite Score / Flaking Score / Mortality (out of 4): 5 days
Method: More particularly, skin irritation was measured on a semi-quantitative scale by the daily subjective evaluation of skin flaking and abrasions. A single number, the topical irritation score, summarizes the skin irritation induced in an animal during the course of an experiment. The topical irritation score is calculated as follows. The topical irritation score is the algebraic sum of a composite flaking score and a composite abrasion score. The composite scores range from 0-9 and 0-8 for flaking and abrasions, respectively, and take into account the maximum severity, the time of onset, and the average severity of the flaking and abrasions observed.
The severity of flaking is scored on a 5-point scale and the severity of abrasions is scored on a 4-point scale, with higher scores reflecting greater severity. The maximum severity component of the composite scores would be the highest daily severity score assigned to a given animal during the course of observation.
For the time of onset component of the composite score, a score ranging from 0 to 4 is assigned as follows:
The average severity component of the composite score is the sum of the daily flaking or abrasion scores divided by the number of observation days.
To calculate the composite flaking and abrasion scores, the average severity and time of onset scores are summed and divided by 2. The result is added to the maximal severity score. The composite flaking and abrasion scores are then summed to give the overall topical irritation score. Each animal receives a topical irritation score, and the values are expressed as the mean±SD of the individual scores of a group of animals. Values are rounded to the nearest integer.
Thus, female hairless mice [Crl:SKH1-hrBR] […] Treatments are applied to the dorsal skin in a total volume of 4 ml/kg (−0.1 ml).

CC1(C)CCC(C)(C)c2c(Br)cc(C(=O)Nc3ccc(C(=O)O)c(F)c3)cc21 [Compound 4, 2-Fluoro-4-[(4′-bromo-5′,6′,7′,8′-tetrahydro-5′,5′,8′,8′-tetramethylnaphthalen-2′-yl)carbamoyl]benzoic Acid]
growth of RPMI 8226 malignant cells [1]: inhibited the growth
growth of RPMI 8226 cells at low concentration [1]: do not stimulate but rather already in this low concentrations inhibit the growth
AML-193 cell proliferation at low concentrations [2]: reduce cell proliferation at low concentrations

CC1(C)CC(C)(C)c2cc(C(=O)Nc3ccc(C(=O)O)c(F)c3)cc(Br)c2O1 [Compound 10, 2-Fluoro-4-[(2′,2′,4′,4′-tetramethyl-8′-bromochroman-6′-yl)carbamoyl]benzoic Acid]
IC50 [3]: 250 ng/mL (≈ 555 nM)

CC1(C)CC(C)(C)c2cc(C(=O)Nc3ccc(C(=O)O)c(F)c3)cc(C(F)(F)F)c2O1 [Compound 12]
growth of RPMI 8226 malignant cells [1]: inhibited the growth
growth of RPMI 8226 cells at low concentration [1]: do not stimulate but rather already in this low concentrations inhibit the growth
AML-193 cell proliferation at low concentrations [2]: reduce cell proliferation at low concentrations

CC(C)(C)c1cc(C(=O)Nc2ccc(C(=O)O)cc2)cc(C(C)(C)C)n1 [Compound 44]
Kd [4]: > 1000 nM
Kd [5]: > 1000 nM

CC(C)(C)c1cc(C(=O)Nc2ccc(C(=O)O)c(F)c2)c(O)c(C(C)(C)C)c1 [Compound 48]
Kd [4]: > 1000 nM
Kd [5]: > 1000 nM

C/C(=C\c1ccc(C(=O)O)cc1)c1ccc2c(c1)C(C)(C)CCC2(C)C [TTNPB]
IC50 [3]: 0.01 ng/mL (≈ 0.0287 nM)
weight loss in similar tests [6]: very significant weight loss
Abrasion Score ([7]; dose 0.9 nanomol/25 g topical): 3
Body Weight % gain or (loss) ([7]; dose 0.9 nanomol/25 g topical): 5 ± 2%
Composite Score ([7]; dose 0.9 nanomol/25 g topical): 8 ± 2
Flaking Score ([7]; dose 0.9 nanomol/25 g topical): 5
Mortality (out of 4) ([7]; dose 0.9 nanomol/25 g topical): 0 out of 4
Abrasion Score ([7]; dose 2.7 nanomol/25 g topical): 3
Body Weight % gain or (loss) ([7]; dose 2.7 nanomol/25 g topical): (4 ± 3) %
Composite Score ([7]; dose 2.7 nanomol/25 g topical): 9 ± 2
Flaking Score ([7]; dose 2.7 nanomol/25 g topical): 6
Mortality (out of 4) ([7]; dose 2.7 nanomol/25 g topical): 0 out of 4
Abrasion Score ([7]; dose 9 nanomol/25 g topical): 5
Body Weight % gain or (loss) ([7]; dose 9 nanomol/25 g topical): (11 ± 3) %
Composite Score ([7]; dose 9 nanomol/25 g topical): 11 ± 2
Flaking Score ([7]; dose 9 nanomol/25 g topical): 7
Mortality (out of 4) ([7]; dose 9 nanomol/25 g topical): 0 out of 4
skin irritation (summary in words) ([7]; topical, hairless mice, RARα selective compound up to 1000 nmol/25 g): much more serious skin irritation
